The text below walks through data of ChEMBL document CHEMBL2034872, “Antineoplastic agents. 587. Isolation and structure of 3-epipancratistatin from Narcissus cv. Ice Follies” (2012).

Holding throughout (assay type): functional
The test system of experiment [1] is DU-145. The experiment is described as follows: Cytotoxicity against human DU145 cells after 48 hrs by SRB assay. As to conditions: DU-145, 48 h. In general terms: In SRB staining, fixed cells bind dye roughly in proportion to their protein.
Experiment [2] relates to P388. The experiment is described as follows: Cytotoxicity against mouse P388 cells after 48 hrs by cell counting. The conditions noted are these: P388, 48 h, read-out: ED50 (the source's name).
The subject of experiment [3] is KM-20L2. The experiment is described as follows: Cytotoxicity against human KM20L2 cells after 48 hrs by SRB assay. The conditions noted are these: KM-20L2, 48 h.
Experiment [4] has as its system NCI-H460. Nature of the experiment: Cytotoxicity against human NCI-H460 cells after 48 hrs by SRB assay. As to conditions: NCI-H460, 48 h.
Experiment [5] relates to MCF7. Nature of the experiment: Cytotoxicity against human MCF7 cells after 48 hrs by SRB assay. The conditions noted are these: MCF7, 48 h.
The test system of experiment [6] is BXPC-3. The experiment is described as follows: Cytotoxicity against human BxPC3 cells after 48 hrs by SRB assay. The conditions noted are these: BXPC-3, 48 h.
For experiment [7], the system named is SF-268. The experiment is described as follows: Cytotoxicity against human SF268 cells after 48 hrs by SRB assay. As to conditions: SF-268, 48 h.

≈ marks a conversion by molar mass, not a printed value.

`O=C1N[C@H]2[C@H](O)[C@@H](O)[C@@H](O)[C@H](O)[C@@H]2c2cc3c(c(O)c21)OCO3` (relative stereo): the concentration for 50% growth inhibition (GI50) in experiment [1] was found to be 1.3 µg/mL (≈ 4 µM); in experiment [3] it was 2.3 µg/mL (≈ 7.07 µM); in experiment [4], 0.85 µg/mL (≈ 2.61 µM); in experiment [5], 2.2 µg/mL (≈ 6.76 µM); in experiment [6], 1.7 µg/mL (≈ 5.23 µM); in experiment [7] it was 0.74 µg/mL (≈ 2.28 µM). The EC50 in experiment [2] was determined as 0.69 µg/mL (≈ 2.12 µM).
Consider `O=C1N[C@H]2[C@H](O)[C@H](O)[C@@H](O)[C@H](O)[C@@H]2c2cc3c(c(O)c21)OCO3` [PANCRATISTATIN], for which the 50% growth inhibitory concentration (GI50) was 0.015 µg/mL (≈ 0.0461 µM) in experiment [1]; 0.025 µg/mL (≈ 0.0769 µM) in experiment [3]; 0.032 µg/mL (≈ 0.0984 µM) in experiment [4]; 0.023 µg/mL (≈ 0.0707 µM) in experiment [5]; 0.02 µg/mL (≈ 0.0615 µM) in experiment [6]; 0.014 µg/mL (≈ 0.043 µM) in experiment [7]. Moreover, in experiment [2], the EC50 was 0.017 µg/mL (≈ 0.0523 µM).
For `O=C1N[C@@H]2C(=C[C@H](O)[C@@H](O)[C@H]2O)c2cc3c(c(O)c21)OCO3` [NARCICLASINE], in experiment [2], the EC50 was determined as 0.018 µg/mL (≈ 0.0586 µM).

By GI50 is commonly meant the concentration that inhibits growth by half. Read a low GI50 as greater sensitivity of the cells.
